Experimental data: patent publication US20230146455A1, “TREATMENT OF INFLAMMATORY DISEASES WITH PEPTIDES AND PHARMACEUTICAL COMPOSITIONS” (Yuyu Pharma, Inc., priority 2020, published 2023)
“Also recorded” adds a separate entry of the source. Where a SMILES comes first, the peptide text is derived from it. [ ]: non-standard residue; d: D form. Hyp = O=C(O)[C@@H]1C[C@@H](O)CN1

Tested on: cytokine and chemokine release in human peripheral blood mononuclear cells (hPBMCs)
Assay: Luminex multiplex, 30 cytokines and chemokines, LPS stimulated hPBMCs, main study (Example 8, Study 1), whole panel
Format: cell-based
Conditions: for LPS-induced cytokine/chemokine levels, whole panel (in words): LPS 5 ug/mL 24 hrs, up to 500 nM
Experimental: Human PBMCs frozen in a cryopreserve was thawed, washed with Hank's Balanced Salt Solution containing 10% Fetal bovine serum, and seeded onto a 24-well plate at a density of 1×10^6 cells/well with culture RPMI media containing 10% Fetal bovine serum in growth media in a 24 well plate for 12, 24, and 48 hrs and maintained at 37° C. in an atmosphere of 95% air and 5% CO2.
Human PBMCs were pretreated with YY-101, YDE-011, YDE-043 or reference compound; Xiidra® at various concentration (ranging from […] to 500 nM) for 2 h before stimulation. An equal volume of 0.5% DMSO was used as a vehicle control. Then, the cells were treated with LPS at 5 ug/ml, which was selected based on the pilot study. The supernatants from treated cells were harvested at 24 h and placed in a 96 well for Luminex cytokine & chemokine profiling using a Luminex 200 multiplex assay (Luminex; R&D system, USA).
The main study arm with triplicate wells per group in a 24-well plate: • 1. Blank • 2. PBMC: 0.5% DMSO • 3. PBMC+LPS (5 ug/ml) • 4. PBMC+YY-101 500 nM • 5. PBMC+YY-101 50 nM • 6. PBMC+YY-101 5 nM • 7. PBMC+YY-101 0.5 nM • 8. PBMC+LPS (5 ug/ml)+Xiidra® 500 nM • 9. PBMC+LPS (5 ug/ml)+Xiidra® 50 nM • 10. PBMC+LPS (5 ug/ml)+Xiidra® 5 nM • 11. PBMC+LPS (5 ug/ml)+Xiidra® 0.5 nM • 12. PBMC+LPS (5 ug/ml)+Xiidra® 0.05 nM • 13. PBMC+LPS (5 ug/ml)+Xiidra® 0.005 nM • 14. PBMC+LPS (5 ug/ml)+YY-101 500 nM • 15. PBMC+LPS (5 ug/ml)+YY-101 50 nM • 16. PBMC+LPS (5 ug/ml)+YY-101 5 nM • 17. PBMC+LPS (5 ug/ml)+YY-101 0.5 nM • 18. PBMC+LPS (5 ug/ml)+YY-101 0.05 nM • 19. PBMC+LPS (5 ug/ml)+YY-101 0.005 nM • 20. PBMC+LPS (5 ug/ml)+YDE-011 500 nM • 21. PBMC+LPS (5 ug/ml)+YDE-011 50 nM • 22. PBMC+LPS (5 ug/ml)+YDE-011 5 nM • 23. PBMC+LPS (5 ug/ml)+YDE-011 0.5 nM • 24. PBMC+LPS (5 ug/ml)+YDE-011 0.05 nM • 25. PBMC+LPS (5 ug/ml)+YDE-011 0.005 nM • 26. PBMC+LPS (5 ug/ml)+YDE-043 500 nM • 27. PBMC+LPS (5 ug/ml)+YDE-043 50 nM • 28. PBMC+LPS (5 ug/ml)+YDE-043 5 nM • 29. PBMC+LPS (5 ug/ml)+YDE-043 0.5 nM • 30. PBMC+LPS (5 ug/ml)+YDE-043 0.05 nM • 31. PBMC+LPS (5 ug/ml)+YDE-043 0.005 nM
Multiplex assay was used to measure 30 cytokines and chemokines. The 1:200 diluted cell supernatant and serial dilution of the standard were dispensed into a 96 well plate at 50 ul/well. Then, the pre-mixed cocktail of antibody-coated magnetic beads was dispensed at 50 ul/well and incubated at room temperature for 2 h in a horizontal orbital microplate shaker at 800±500 rpm. The beads were washed using a magnetic device to prevent loss. The biotin-antibody was dispensed in 50 ul of each well and incubated at room temperature for 1 h in a shaker at 800±500 rpm. […] The data was calculated with a standard five-parameter logistic nonlinear regression analysis of the data (xPonent software 4.2, USA). […]

SMILES: CC(C)C[C@H](NC(=O)[C@H](CCC(N)=O)NC(=O)CNC(=O)[C@@H]1C[C@@H](O)CN1)C(=O)NCC(=O)O [YDE-043] (H-[Hyp]GQLG-OH; N-terminus and C-terminus assumed)
- LPS-induced cytokine/chemokine levels, whole panel (in words): more effectively lowered cytokine and chemokine production; also recorded: potently and significantly reduced pro-inflammatory cytokine/chemokine production

SMILES: CC(C)C[C@H](NC(=O)CNC(=O)[C@H](CC(C)C)NC(=O)[C@H](CCC(N)=O)NC(=O)CNC(=O)[C@@H]1C[C@@H](O)CN1)C(=O)N[C@@H](C)C(=O)NCC(=O)N1CCC[C@H]1C(=O)N[C@@H](CCCCN)C(=O)O [YDE-011] (H-[Hyp]GQLGLAGPK-OH)
- LPS-induced cytokine/chemokine levels, whole panel (in words): potently and significantly reduced pro-inflammatory cytokine/chemokine production

SMILES: CC(C)C[C@H](NC(=O)CNC(=O)[C@H](CC(=O)O)NC(=O)[C@H](CCC(N)=O)NC(=O)CNC(=O)[C@@H]1C[C@@H](O)CN1)C(=O)N[C@@H](C)C(=O)NCC(=O)N1CCC[C@H]1C(=O)N[C@@H](CCCCN)C(=O)O [YY-101] (H-[Hyp]GQDGLAGPK-OH; N-terminus and C-terminus assumed)
- LPS-induced cytokine/chemokine levels, whole panel (in words): potently and significantly reduced pro-inflammatory cytokine/chemokine production
- basal levels of cytokine production (in words) (no LPS): didn't affect the basal levels of cytokine production
